These results are taken from patent US20240336588A1, “COMPOSITIONS AND METHODS FOR ANTIOXIDANT AND ANTI-INFLAMMATORY THERAPEUTICS” (AVANTI BIOSCIENCES INC., priority 2021, published 2024).

The target of this experiment is DYRK1A (HT-497, 6×His tagged rat truncated DYRK1A isoform X1 residues 1-497) (Rattus norvegicus (Rat), UniProt Q63470). Description: DYRK1A ELISA assay (HT-PRD phosphorylation). The following applies: 100 µM ATP, 5 ng HT-497, 30 min at 30° C. In kind it is biochemical. As to the method: Compounds of Table 1, above, were examined in vitro for activity against DYRK1A, DYRK1B, DYRK2 via an ELISA assay.
DYRK1A assay. […] After blocking, wells were washed extensively with dilution buffer before subjecting to phosphorylation. […] At the end point, wells were washed with ˜350 μl dilution buffer three times to terminate the reaction. […] Each point was run in quadruplicate with DMSO present in all assays at 0.2% final concentration. […] HT-PRD phosphorylation was subsequently determined by the sandwich antibody staining protocol, first with 100 μl mouse mAb 3D3 specific for detecting DYRK1A-phosphorylated PRD (60 min at room temperature) then with 100 μl alkaline phosphatase (AP)-linked anti-mouse secondary antibody (60 min at room temperature), followed by colorimetric reaction with 100 μl PNPP solution (PNPP substrate tablet, Thermo Fisher). […] The readings were then recorded for subsequent IC50 calculation. The DYRK1A assay protocol can also support DYRK1B and DYRK2 phosphorylation reactions in the enzyme concentration-dependent manner; therefore, the method was adapted for measuring the activity of candidate compounds against DYRK1B and DYRK2. For DYRK2, the reactions were performed as described above with 6 ng HT-DYRK2 (6×His tagged full-length human DYRK2 isoform 1). For DYRK1B, the assays were also similarly conducted but with 70 ng GST-DYRK1B (glutathione S-transferase tagged full length human DYRK1B isoform p65) and an extended kinase reaction time of 60 min.
Dilution factors for both mAb 3D3 and secondary antibody were pre-determined for each batch of antibody to ensure that neither antibody was limiting in the assay.
Data transformation, calculation, plotting, curve fitting, and IC 50 calculation were performed in KaleidaGraph (http://www.synergy.com/wordpress_650164087; Mac version 4.1). Data was corrected for background (readings from wells with only PNPP) before subsequent manipulations. […] The resulting residual activity was then plotted against its corresponding inhibitor concentrations in semi-log graph and the plot was fit to the sigmoidal equation, y=a+(b−a)/(1+(x/c)^d), for IC50 calculation.
Background: An ELISA detects its analyte on a solid surface through an enzyme-linked reagent.

In general, pIC50 refers to the negative decadic logarithm of the IC50, by convention in mol/L.

The structures appear in SMILES notation. pIC50: −log10 of the molar value.

Consider `O=C(O[C@H]1Cc2c(O)cc(O)cc2O[C@@H]1c1cc(O)c(O)c(O)c1)c1ccc(O)c(O)c1` [Compound 19, (2R,3S)-5,7-dihydroxy-2-(3,4,5-trihydroxyphenyl)chroman-3-yl 3,4-dihydroxybenzoate], for which the pIC50 was < 7.00. `O=C(O[C@H]1Cc2c(O)cc(O)cc2O[C@@H]1c1cc(O)c(O)c(O)c1)c1ccc(O)cc1` [Compound 20, (2R,3S)-5,7-dihydroxy-2-(3,4,5-trihydroxyphenyl)chroman-3-yl 4-hydroxybenzoate]: the negative-log IC50 (pIC50) was < 6.00. Under `O=C(O[C@@H]1Cc2c(O)cc(O)cc2O[C@@H]1c1cc(O)c(O)c(O)c1)c1ccc(O)cc1` [Compound 21, (2R,3R)-5,7-dihydroxy-2-(3,4,5-trihydroxyphenyl)chroman-3-yl 4-hydroxybenzoate] stands < 6.00; under `O=C(O[C@H]1Cc2c(O)cc(O)cc2O[C@@H]1c1cc(O)c(O)c(O)c1)c1ccncc1` [Compound 22, (2R,3S)-5,7-dihydroxy-2-(3,4,5-trihydroxyphenyl)chroman-3-yl isonicotinate], < 6.00. Regarding `O=C(O[C@@H]1Cc2c(O)cc(O)cc2O[C@@H]1c1cc(O)c(O)c(O)c1)c1ccncc1` [Compound 23, (2R,3R)-5,7-dihydroxy-2-(3,4,5-trihydroxyphenyl)chroman-3-yl isonicotinate], the negative logarithm of the IC50 (pIC50) is < 6.00. As to `O=C(O[C@H]1Cc2c(O)cc(O)cc2O[C@@H]1c1cc(O)c(O)c(O)c1)c1ccc(F)c(F)c1` [Compound 24, (2R,3S)-5,7-dihydroxy-2-(3,4,5-trihydroxyphenyl)chroman-3-yl 3,4-difluorobenzoate], the pIC50 was < 6.00. Under `O=C(O[C@@H]1Cc2c(O)cc(O)cc2O[C@@H]1c1cc(O)c(O)c(O)c1)c1ccc(F)c(F)c1` [Compound 25, (2R,3R)-5,7-dihydroxy-2-(3,4,5-trihydroxyphenyl)chroman-3-yl 3,4-difluorobenzoate] stands < 6.00; under `O=C(O[C@@H]1Cc2c(O)cc(O)cc2O[C@@H]1c1cc(O)c(O)c(O)c1)c1ccn(O)c(=O)c1` [Compound 26, (2R,3R)-5,7-dihydroxy-2-(3,4,5-trihydroxyphenyl)chroman-3-yl 1-hydroxy-2-oxo-1,2-dihydropyridine-4-carboxylate], < 6.00; under `O=C(O[C@H]1Cc2c(O)cc(O)cc2O[C@@H]1c1cc(O)c(O)c(O)c1)c1cnc(O)c(O)c1` [Compound 27, (2R,3S)-5,7-dihydroxy-2-(3,4,5-trihydroxyphenyl)chroman-3-yl 5,6-dihydroxynicotinate], < 7.00. With `O=C(O[C@H]1Cc2c(O)cc(O)cc2O[C@@H]1c1ccc(O)c(O)c1)c1ccc(O)c(O)c1` [Compound 28, (2R,3S)-2-(3,4-dihydroxyphenyl)-5,7-dihydroxychroman-3-yl 3,4-dihydroxybenzoate], the negative logarithm of the IC50 (pIC50) was < 6.00. For the compound `Nc1ncc(C(=O)O[C@H]2Cc3c(O)cc(O)cc3O[C@@H]2c2ccc(O)c(O)c2)cc1O` [Compound 29, (2R,3S)-2-(3,4-dihydroxyphenyl)-5,7-dihydroxychroman-3-yl 6-amino-5-hydroxynicotinate], the pIC50 was < 6.00. `CS(=O)(=O)Nc1ccc(C(=O)O[C@H]2Cc3c(O)cc(O)cc3O[C@@H]2c2ccc(O)c(O)c2)cc1O` [Compound 30, (2R,3S)-2-(3,4-dihydroxyphenyl)-5,7-dihydroxychroman-3-yl 3-hydroxy-4-(methylsulfonamido)benzoate]: the pIC50 is < 6.00. For `O=C(O[C@@H]1Cc2c(O)cc(O)cc2O[C@H]1c1ccc(O)c(O)c1)c1ccc(O)c(O)c1` [Compound 31, (2S,3R)-2-(3,4-dihydroxyphenyl)-5,7-dihydroxychroman-3-yl 3,4-dihydroxybenzoate] the value was < 7.00. For `O=C(O[C@@H]1Cc2cccc(O)c2C[C@H]1c1cc(O)c(O)c(O)c1)c1cc(O)c(O)c(O)c1` [Compound 33, (2R,3S)-5-hydroxy-3-(3,4,5-trihydroxyphenyl)-1,2,3,4-tetrahydronaphthalen-2-yl 3,4,5-trihydroxybenzoate] the value was < 7.00; for `O=C(O[C@@H]1Cc2c(O)cc(O)cc2O[C@H]1c1cc(O)c(O)c(O)c1)c1ccc(O)c(O)c1` [Compound 34, (2S,3R)-5,7-dihydroxy-2-(3,4,5-trihydroxyphenyl)chroman-3-yl 3,4-dihydroxybenzoate], < 7.00; for `Nc1ccc(C(=O)O[C@@H]2Cc3c(O)cc(O)cc3O[C@H]2c2cc(O)c(O)c(O)c2)cc1O` [Compound 35, (2S,3R)-5,7-dihydroxy-2-(3,4,5-trihydroxyphenyl)chroman-3-yl 4-amino-3-hydroxybenzoate], < 6.00. As for `Nc1ncc(C(=O)O[C@@H]2Cc3c(O)cc(O)cc3O[C@H]2c2cc(O)c(O)c(O)c2)cc1O` [Compound 36, (2S,3R)-5,7-dihydroxy-2-(3,4,5-trihydroxyphenyl)chroman-3-yl 6-amino-5-hydroxynicotinate], the pIC50 was < 6.00. For `CS(=O)(=O)Nc1ccc(C(=O)O[C@@H]2Cc3c(O)cc(O)cc3O[C@H]2c2cc(O)c(O)c(O)c2)cc1O` [Compound 37, (2S,3R)-5,7-dihydroxy-2-(3,4,5-trihydroxyphenyl)chroman-3-yl 3-hydroxy-4-(methylsulfonamido)benzoate] the value was < 6.00; for `O=C(O[C@@H]1Cc2c(O)cc(O)cc2O[C@H]1c1cc(O)c(O)c(O)c1)c1ccc(O)c(O)c1O` [Compound 38, (2S,3R)-5,7-dihydroxy-2-(3,4,5-trihydroxyphenyl)chroman-3-yl 2,3,4-trihydroxybenzoate], < 7.00; for `O=C(O[C@@H]1Cc2ccccc2O[C@H]1c1cc(O)c(O)c(O)c1)c1cc(O)c(O)c(O)c1` [Compound 39, (2S,3R)-2-(3,4,5-trihydroxyphenyl)chroman-3-yl 3,4,5-trihydroxybenzoate], < 7.00. Under `O=C(O[C@@H]1Cc2c(O)cc(O)cc2O[C@H]1c1cc(O)c(O)c(O)c1)c1cc(O)c(O)cc1F` [Compound 41, (2S,3R)-5,7-dihydroxy-2-(3,4,5-trihydroxyphenyl)chroman-3-yl 2-fluoro-4,5-dihydroxybenzoate] stands < 7.00. For `O=C(O[C@@H]1Cc2c(O)cc(O)cc2O[C@H]1c1cc(O)c(O)c(O)c1)c1cc(O)c(O)cc1O` [Compound 42, (2S,3R)-5,7-dihydroxy-2-(3,4,5-trihydroxyphenyl)chroman-3-yl 2,4,5-trihydroxybenzoate] the value was < 7.00; for `O=C(O[C@@H]1Cc2c(O)cc(O)cc2O[C@H]1c1cc(O)c(O)c(O)c1)[C@H]1CC[C@@H](O)CC1` [Compound 43, (2S,3R)-5,7-dihydroxy-2-(3,4,5-trihydroxyphenyl)chroman-3-yl (1s,4S)-4-hydroxycyclohexane-1-carboxylate], < 6.00. For `O=C(O[C@@H]1Cc2c(O)cc(O)cc2O[C@H]1c1cc(O)c(O)c(O)c1)[C@H]1CC[C@H](O)CC1` [Compound 44, (2S,3R)-5,7-dihydroxy-2-(3,4,5-trihydroxyphenyl)chroman-3-yl (1r,4R)-4-hydroxycyclohexane-1-carboxylate], the pIC50 was < 6.00. Consider `O=C(O[C@@H]1Cc2c(O)cc(O)cc2O[C@H]1c1cc(O)c(O)cc1F)c1cc(O)c(O)c(O)c1` [Compound 45, (2S,3R)-2-(2-fluoro-4,5-dihydroxyphenyl)-5,7-dihydroxychroman-3-yl 3,4,5-trihydroxybenzoate], for which the pIC50 was < 7.00.

On to `O=C(O[C@@H]1Cc2c(O)cc(O)cc2O[C@H]1c1cc(O)c(O)c(O)c1F)c1cc(O)c(O)c(O)c1` [Compound 46, (2S,3R)-2-(2-fluoro-3,4,5-trihydroxyphenyl)-5,7-dihydroxychroman-3-yl 3,4,5-trihydroxybenzoate], for which the pIC50 was > 7.00.

For the compound `O=C(O[C@@H]1Cc2c(O)cc(O)cc2O[C@H]1c1cc(O)c(O)c(O)c1F)c1cc(O)c(O)c(O)c1F` [Compound 47, (2S,3R)-2-(2-fluoro-3,4,5-trihydroxyphenyl)-5,7-dihydroxychroman-3-yl 2-fluoro-3,4,5-trihydroxybenzoate], the negative-log IC50 (pIC50) was > 7.00. `O=C(O[C@@H]1Cc2c(O)cc(O)cc2O[C@H]1c1cc(O)c(O)cc1F)c1cc(O)c(O)c(O)c1F` [Compound 48, (2S,3R)-2-(2-fluoro-4,5-dihydroxyphenyl)-5,7-dihydroxychroman-3-yl 2-fluoro-3,4,5-trihydroxybenzoate]: the pIC50 was < 7.00. For `COc1cc([C@@H]2Oc3cc(O)cc(O)c3C[C@H]2OC(=O)c2cc(O)c(O)c(O)c2F)cc(O)c1O` [Compound 49, (2S,3R)-2-(3,4-dihydroxy-5-methoxyphenyl)-5,7-dihydroxychroman-3-yl 2-fluoro-3,4,5-trihydroxybenzoate] the value was < 7.00.
